# Measured values from patent US20250115633A1, “PHOTODYNAMIC THERAPY AND DIAGNOSIS” (RMW CHO Group Limited, priority 2021, published 2025).
# Counter-ions that a name gives are not always drawn. Like-named read-outs stand apart in the source and are kept apart here.
# What was measured:
# [1] = system: SKOV3 ovarian cancer cells; test: Inherent cytotoxicity (dark toxicity) in SKOV3 cells (AlamarBlue viability); format: cell-based, Human
# Procedure: (§1) Samples were stored at 4° C. protected from light.
# (§2) All data are shown as mean±SD (where appropriate).
# Untreated cells were used as a control. […] All measurements were made in quadruplicate.
# [2] = system: SKOV3 ovarian cancer cells; test: Phototoxicity in SKOV3 cells after 660 nm light activation (AlamarBlue viability); format: cell-based, Human; settings: read-out: Phototoxicity μM (IC90)
# Procedure: as §1, §2
# Media was then replaced with fresh media containing AlamarBlue, and % viable cells remaining assessed as above. Controls included cells treated with chlorin e4 analogues but not activated by laser light; cells without chlorin e4 analogue treatment but with laser light; and untreated controls. All measurements were made in quadruplicate.
# [3] = SKOV3, 24 hours incubation, no light activation
# [4] = Homo sapiens, SK-OV-3, light or radiation study
# [5] = SKOV3, 24 hours uptake, 660 nm, 50 mW/cm^2 for 5 mins (total 15 J/cm^2), * phototoxicity measured by LED
Compound,"Dark toxicity μM (IC10) [1, 3]","IC90 [2, 4]",other results
"C=Cc1c(C)c2cc3nc(c(C)c4[nH]c(cc5nc(cc1[nH]2)C(C)=C5CC)c(C)c4C(=O)O)[C@@H](CCC(=O)O)[C@@H]3C [Chlorin e4 disodium, Chlorin e4 Disodium Salt, reference compound]",–,–,"Dark toxicity μM (IC10) [1]: 40.23 µM; IC90 ([2]; SKOV3, 24 hours uptake, 660 nm, 50 mW/cm^2 for 5 mins (total 15 J/cm^2), values not marked * (laser)): 21.3 µM"
"CCC1=C(C)c2cc3[nH]c(cc4nc(c(C)c5[nH]c(cc1n2)c(C)c5C(=O)OC)[C@@H](CCC(=O)OC)[C@@H]4C)c(C)c3C(C)OCCCS[C@@H]1O[C@H](CO)[C@@H](O)[C@H](O)[C@H]1O (stereo partly drawn) [Compound 1, methyl (7S,8S)-18-ethyl-7-(3-methoxy-3-oxopropyl)-2,5,8,12,17-pentamethyl-13-(1-(3-(((2S,3R,4S,5S,6R)-3,4,5-trihydroxy-6-(hydroxymethyl)tetrahydro-2H-pyran-2-yl)thio)propoxy)ethyl)-7H,8H-porphyrin-3-carboxylate]",8.64 µM,0.06 µM,–
"CCC1=C(C)c2cc3[nH]c(cc4nc(c(C)c5[nH]c(cc1n2)c(C)c5C(=O)OC)[C@@H](CCC(=O)OC)[C@@H]4C)c(C)c3COC(=O)NCCCOCCC[P+](c1ccccc1)(c1ccccc1)c1ccccc1 [Compound 4, chlorin e4 dimethyl ester 13-(N-(3-(3-triphenylphosphoniumpropoxy)propyl)chloride)carbamate]",3.881 µM,0.0024 µM,–
"CCC1=C(C)c2cc3[nH]c(cc4nc(c(C)c5[nH]c(cc1n2)c(C)c5C(=O)OC)[C@@H](CCC(=O)OC)[C@@H]4C)c(C)c3COC(=O)NCCC[P+](c1ccccc1)(c1ccccc1)c1ccccc1 [Compound 5, chlorin e4 dimethyl ester 13-(N-(3-triphenylphosphoniumpropyl)bromide)carbamate]",3.046 µM,0.0029 µM,–
"CCC1=C(C)c2cc3[nH]c(cc4nc(c(C)c5[nH]c(cc1n2)c(C)c5C(=O)OC)[C@@H](CCC(=O)OC)[C@@H]4C)c(C)c3COC(=O)NCC[P+](c1ccccc1)(c1ccccc1)c1ccccc1 [Compound 6, chlorin e4 dimethyl ester 13-(N-(2-triphenylphosphoniumethyl)bromide)carbamate]",2.281 µM,–,"IC90 ([2]; Homo sapiens, SK-OV-3, light or radiation study, SKOV3, 24 hours uptake, 660 nm, 50 mW/cm^2 for 5 mins (total 15 J/cm^2), * phototoxicity measured by LED): 0.0018 µM"
"C=Cc1c(C)c2cc3nc(c(CC(=O)N[C@@H](CC(=O)O)C(=O)O)c4[nH]c(cc5nc(cc1[nH]2)C(C)=C5CC)c(C)c4C(=O)O)[C@@H](CCC(=O)O)[C@@H]3C [Talaporfin sodium, reference compound]",11.10 µM,–,–
chlorin e4 13-hydroxymethyl dimethyl ester,–,–,"Dark toxicity μM (IC10) [1]: 42.830 µM; IC90 [2, 5]: 0.325 µM"
chlorin e4 dimethyl ester 13-(6-(triphenylphosphonium bromide)hexyl)carbamate [Compound 3],0.838 µM,–,"IC90 [2, 5]: 0.0041 µM"
